From US9492470B2, “Use of HMGA-targeted phosphorothioate DNA aptamers to suppress carcinogenic activity and increase sensitivity to chemotherapy agents in human cancer cells” (MIAMI UNIVERSITY, priority 2012, dated 2016)
Like-named read-outs stand apart in the source and are kept apart here. In the oligonucleotide strings, read from the 5' end, every base follows the letter of its sugar. An asterisk marks phosphorothioate; unmarked linkages are phosphodiester. Other units and linkages are bracketed, terminal groups are in braces. A string of capitals states the bases alone. d = 2'-deoxy (DNA)

Key:
Miapaca-2 cells [1] = assay: Cell viability (crystal violet) after sDNA transfection, Miapaca-2; format: cell-based, Human; details: for cells dead compared to TC: versus transfection control (TC) cells; for cells dead compared to UT: Miapaca-2, 0.1 ug sDNA, versus untransfected (UT) cells; for Fold change in numbers of viable cells between TC and sDNA transfected cells (in parentheses) / Fold change in numbers of viable cells between UT and transfected cells: 96 h after transfection
Description: The absorbance was measured at 570 nm in quadruplicate. All data from control cells were combined and averaged.

[2] = tested on: HMGA1 expression levels in AsPC-1 cells; assay: Western blot of HMGA1 expression levels in AsPC-1 nuclear extracts; format: cell-based, Human; details: AsPC-1, 0.5 μg sDNA in six well plates, 48 hours
Description: Cytoplasmic and nuclear protein extracts were prepared from pancreatic cancer cells using NE-PER extraction kit (Thermo Scientific, Rockford, Ill.). Protein concentrations were determined using a bicinchoninic acid assay with bovine serum albumin as a standard. Nuclear proteins that contained 25 or 15 μg total protein were separated by SDS-PAGE with a 4%-20% Criterion gradient gel (Bio-Rad Laboratories, Inc., Hercules, Calif.). The proteins were transferred to immuno-blot PVDF membrane (0.2 μm) (Bio-Rad Laboratories, Inc., Hercules, Calif.) and blocked in 5% dry milk in PBS supplemented with 0.2% Tween 20 (PBST). The PVDF membranes were then probed with 1:1000 dilution of rabbit anti-HMGA1 antibody (Santa Cruz Biotechnology Inc, Santa Cruz, Calif.) and 1:100 dilution of rabbit anti-HMGA2 antibody (Abcam plc, Cambridge, Mass.), in 3% BSA in PBST at 4° C. overnight. After three washes with PBST, the membrane was blotted with secondary antibody, ant-rabbit IgG-HRP (cell signaling) 1:5000 dilution in 1% dry milk in PBST at room temperature for 1 hour. An enhanced chemiluminescence detection (ECL, GE Healthcare Life Sciences, Piscataway, N.J.) system was used to detect target proteins. To ensure equal loading of the proteins between groups, membranes were re-probed with anti-TATA binding protein antibody (Abcam plc, Cambridge, Mass.). […] The control was nuclear extract from untreated cells. Triplicates of each sample were run on the gel and analyzed with the Alpha Imager. The relative HMGA1 densities were obtained by dividing HMGA 1 density by TBP density. […] TATA binding protein (TBP) was used as a loading control. […] HMGA1 expression levels were examined after transfection with CG-sDNA or AT-sDNA to determine if the transfection procedure affected HMGA1 expression levels. The AT-sDNA used for transfection contained an 18 adenine/thymine stretch enabling HMGA1 to bind the DNA with all three AT-hooks. As a negative control, a non-HMGA1-targeted sDNA containing an equal length of DNA but with no AT-stretches, i.e. CG-sDNA, was used. […]

AsPC-1 cells [3] = assay: Cell growth with gemcitabine treatment after sDNA transfection, AsPC-1; format: cell-based, Human; details: for Fold change in numbers of viable cells normalized relative to TC: AsPC-1, 0.1 ug sDNA, 96 hours
Description: (§1) Cells were fixed after 96 hours and numbers of viable cells counted by measuring the absorbance at 570 nm.
(§2) Cells were transfected with 0.1 μg of TC-sDNA, Mix-sDNA, CG-sDNA, and AT-sDNA.

AsPC-1 cells [4] = assay: as above; format: cell-based, Human; details: for cells died: AsPC-1, 0.25 μg AT-sDNA
Miapaca-2 cells [5] = assay: Cell growth with gemcitabine treatment after sDNA transfection, Miapaca-2; format: cell-based, Human; details: for Fold change in numbers of viable cells normalized relative to TC: 96 hours
Miapaca-2 cells [6] = assay: as above; format: cell-based, Human; details: 96 hours; for Fold change in numbers of viable cells normalized relative to TC: Miapaca-2, 0.1 ug sDNA
Description: as §1, §2

AsPC-1 cells [7] = details: for cell death: 96 h, compared to non-transfected cells; for cells dead compared to UT: AsPC-1, 0.1 ug sDNA, versus untransfected (UT) cells; for Fold change in numbers of viable cells between TC and sDNA transfected cells (in parentheses) / Fold change in numbers of viable cells between UT and transfected cells: 96 h after transfection
Description: AsPC-1 cells were grown in Roswell Park Memorial Institute medium supplemented with 10% FBS, and 1% penicillin-streptomycin.
Transfections using sDNA at concentrations of 0.1 and 0.25 μg per well were conducted with 5×10^4 and 1×10^5 Miapaca-2 and AsPC-1 cells, respectively, in 24-well plates and all data were collected in quadruplicate. Miapaca-2 and AsPC-1 cells were transfected with sDNA using Lipofectamine 2000 (Invitrogen,™ Life Technologies Corporation, Carlsbad, Calif.) according to the manufacturer's protocol.
Briefly, AsPC-1 cells grown in 10% FBS containing RPIM medium were trypsinized using a trypsin-EDTA solution commercially available from the Sigma-Aldrich, and used to seed fresh media in a 24-well plate with 10^5 cells per well.
After 48 hours, the cells were transfected with the selected sDNA using Lipofectamine 2000 (Invitrogen,™ Life Technologies Corporation, Carlsbad, Calif.) according to the manufacturer's protocol. […] The cells were then fixed with 4% paraformaldehyde in PBS for 20 minutes and stained in 0.1% crystal violet stain (Sigma-Aldrich) for 30 minutes. The cells were washed under running tap water, air dried, and extracted with 0.2% Triton™ X-100 for 30 minutes. […] The absorbance of the Triton X-100 was measured at 570 nm using a HTS microplate reader. All results were analyzed for statistical significance using a student's unpaired t-test.

## AT-sDNA: AT-rich phosphorothioate DNA, 5′-G*G*G*A*A*A*A*A*A*T*T*T*T*T*T*A*A*A*A*A*A*C*C*C-3′ (SEQ ID NO: 1), sulfur substitution at every position (DNA dG*dG*dG*dA*dA*dA*dA*dA*dA*dT*dT*dT*dT*dT*dT*dA*dA*dA*dA*dA*dA*dC*dC*dC)
Miapaca-2 cells [1]; Miapaca-2, 0.1 μg sDNA, 48 hrs
  cells dead compared to TC: 17.2%
Miapaca-2 cells [1]; 48 hrs
  cells dead compared to UT: 48.4%
Miapaca-2 cells [1]; Miapaca-2, 0.1 μg sDNA
  Fold change in numbers of viable cells between TC and sDNA transfected cells (in parentheses): −1.52 fold
  Fold change in numbers of viable cells between UT and transfected cells: −2.36 fold
Miapaca-2 cells [1]; Miapaca-2, 0.1 μg sDNA, 96 hrs
  cells dead compared to TC: 34.1%
Miapaca-2 cells [1]; 96 hrs
  cells dead compared to UT: 58.9%
Miapaca-2 cells [1]; Miapaca-2, 0.25 μg sDNA
  Fold change in numbers of viable cells between TC and sDNA transfected cells (in parentheses): −3.68 fold
  Fold change in numbers of viable cells between UT and transfected cells: −6.07 fold
[2]
  change in HMGA1 expression levels after sDNA transfection: no changes
AsPC-1 cells [3]; AsPC-1, 0.1 μg AT-sDNA, 100 nM gemcitabine
  cells dying: 29.4%
AsPC-1 cells [3]; Gemcitabine 0 nM
  Fold change in numbers of viable cells normalized relative to TC: −1.44 fold
AsPC-1 cells [3]; Gemcitabine 1 nM
  Fold change in numbers of viable cells normalized relative to TC: −1.58 fold
AsPC-1 cells [3]; Gemcitabine 10 nM
  Fold change in numbers of viable cells normalized relative to TC: −1.71 fold
AsPC-1 cells [3]; Gemcitabine 30 nM
  Fold change in numbers of viable cells normalized relative to TC: −1.86 fold
AsPC-1 cells [3]; Gemcitabine 100 nM
  Fold change in numbers of viable cells normalized relative to TC: −2.04 fold
AsPC-1 cells [3]; Gemcitabine 1000 nM
  Fold change in numbers of viable cells normalized relative to TC: −2.33 fold
AsPC-1 cells [4]; AsPC-1, 0.025 μg AT-sDNA, 1000 nM gemcitabine
  cell death: 31%
AsPC-1 cells [4]; AsPC-1, 0.1 μg AT-sDNA, 1 nM gemcitabine
  cells dying: 9.0%
AsPC-1 cells [4]; 1 nM gemcitabine
  cells died: 14.9%
AsPC-1 cells [4]; 100 nM gemcitabine
  cells died: 41.7%
AsPC-1 cells [4]; AsPC-1, AT-sDNA transfection
  overall drop in the number of viable cells after gemcitabine treatment: 2-4 fold
Miapaca-2 cells [5]; Miapaca-2, 0.1 ug sDNA, Gemcitabine 1 nM
  Fold change in numbers of viable cells normalized relative to TC: −1.38 fold
Miapaca-2 cells [5]; Miapaca-2, 0.25 ug sDNA, Gemcitabine 0 nM
  Fold change in numbers of viable cells normalized relative to TC: −3.68 fold
Miapaca-2 cells [5]; Miapaca-2, 0.25 ug sDNA, Gemcitabine 1 nM
  Fold change in numbers of viable cells normalized relative to TC: −4.45 fold
Miapaca-2 cells [5]; Miapaca-2, 0.25 ug sDNA, Gemcitabine 10 nM
  Fold change in numbers of viable cells normalized relative to TC: −4.14 fold
Miapaca-2 cells [5]; Miapaca-2, 0.25 ug sDNA, Gemcitabine 30 nM
  Fold change in numbers of viable cells normalized relative to TC: −8.32 fold
Miapaca-2 cells [5]; Miapaca-2, 0.25 ug sDNA, Gemcitabine 100 nM
  Fold change in numbers of viable cells normalized relative to TC: −11.81 fold
Miapaca-2 cells [5]; Miapaca-2, 0.25 ug sDNA, Gemcitabine 1000 nM
  Fold change in numbers of viable cells normalized relative to TC: −11.31 fold
Miapaca-2 cells [5]; Miapaca-2, either 0.1 or 0.25 μg AT-sDNA, 100 nm or greater gemcitabine
  overall drop in the number of viable cells: ~10 fold
Miapaca-2 cells [6]; Miapaca-2, 0.1 μg sDNA, 1 nM gemcitabine
  cells dead / change in cell viability: 33.6%
Miapaca-2 cells [6]; Miapaca-2, 0.1 μg sDNA, 10 nM gemcitabine, normalized to 0 nM gemcitabine
  cells surviving: 51.2%
Miapaca-2 cells [6]; Gemcitabine 0 nM
  Fold change in numbers of viable cells normalized relative to TC: −1.52 fold
Miapaca-2 cells [6]; Gemcitabine 10 nM
  Fold change in numbers of viable cells normalized relative to TC: −1.79 fold
Miapaca-2 cells [6]; Gemcitabine 30 nM
  Fold change in numbers of viable cells normalized relative to TC: −7.07 fold
Miapaca-2 cells [6]; Gemcitabine 100 nM
  Fold change in numbers of viable cells normalized relative to TC: −9.58 fold
Miapaca-2 cells [6]; Gemcitabine 1000 nM
  Fold change in numbers of viable cells normalized relative to TC: −6.82 fold
AsPC-1 cells [7]; AsPC-1, 0.1 μg sDNA per well
  cell death: 33%
AsPC-1 cells [7]; AsPC-1, 0.1 μg sDNA, 48 hrs, versus transfection control (TC) cells
  cells dead compared to TC: 22.3%
AsPC-1 cells [7]; 48 hrs
  cells dead compared to UT: 42.0%
AsPC-1 cells [7]; AsPC-1, 0.1 μg sDNA
  Fold change in numbers of viable cells between TC and sDNA transfected cells (in parentheses): −1.44 fold
  Fold change in numbers of viable cells between UT and transfected cells: −1.57 fold
AsPC-1 cells [7]; AsPC-1, 0.1 μg sDNA, 96 hrs, versus transfection control (TC) cells
  cells dead compared to TC: 30.7%
AsPC-1 cells [7]; 96 hrs
  cells dead compared to UT: 36.1%
AsPC-1 cells [7]; AsPC-1, 0.25 μg sDNA per well
  cell death: 44%
AsPC-1 cells [7]; AsPC-1, 0.25 μg sDNA
  Fold change in numbers of viable cells between TC and sDNA transfected cells (in parentheses): −1.65 fold
  Fold change in numbers of viable cells between UT and transfected cells: −1.79 fold
AsPC-1 cells [7]; AsPC-1, 0.25 μg sDNA, 96 hours, versus TC cells
  cell death compared to TC: 39.4%
AsPC-1 cells [7]; AsPC-1, 1.0 μg sDNA per well
  cell death: 57%
AsPC-1 cells [7]; AsPC-1, 1.0 μg sDNA, 96 hours, versus TC cells
  cells dead compared to TC: 53.6%
